# According to patent US11124785B2, “Rothia subtilisins, S8A family proteases, as therapeutic enzymes for application in gluten intolerance disorders” (TRUSTEES OF BOSTON UNIVERSITY, priority 2016, dated 2021):
# Key:
# Type in all cases: biochemical
# wheat ATI proteins = experiment: Degradation of amylase-trypsin inhibitors (SDS-PAGE); conditions: ATIs 500 μg/ml, enzyme 10, 25 or 50 μg/ml, pH 8.0, up to 4 h
# Method: (§1) FIGS. 15A-15F show effective ATI degradation by subtilisins from B. subtilis (nattokinase). […] ATI (500 μg/ml) incubated with Rmep from R. mucilaginosa (FIG. 15A) or nattokinase from B. subtilis (FIG. 15C) at 50, 25, or 10 μg/ml; FIGS. 15B and 15D, Gliadins (500 μg/ml) incubated with Rmep (FIG. 15B) or nattokinase (FIG. 15D) at 25 μg/ml. FIGS. 15E and 15F, ATIs incubated with control heat inactivated enzymes, Rmep (FIG. 15E) or nattokinase (FIG. 15F).
# (§2) ATIs were isolated from wheat cultivars as described^3. They were incubated at a final concentration of 500 μg/ml with 10, 25 or 50 μg/ml Rmep (from R. mucilaginosa), or nattokinase (from B. subtilis). The controls incubations were carried out with heat-inactivated Rmep and nattokinase. Experiments were conducted in 50 mM Tris-HCl, pH 8.0. After 0, 15 min, 30 min, 1 h, and 4 h incubation, 20 μl aliquots were removed, mixed with SDS-sample buffer, heated at 85° C. for 5 min and analyzed by 4-12% SDS PAGE. Proteins were visualized with Coomassie Blue staining.
# [1] = test system: gliadin-derived FRET substrate QPQLPY; experiment: FRET substrate hydrolysis, QPQLPY; conditions: substrate 100 μM, Rmep 1 μg/ml, pH 8.0, 37° C.
# Method: (§3) FIG. 4D and FIG. 4E are representative graphs of the hydrolysis of gliadin-derived FRET substrates. FRET substrates containing QPQLPY (SEQ ID NO: 22), PQPQPQ (SEQ ID NO: 23) and QGSFQP (SEQ ID NO: 24), each at 100 μM, were incubated with Rmep […] and subtilisin A (FIG. 4E), at 1 μg/ml and 0.5 μg/ml, respectively. Controls were boiled Rmep and subtilisin A incubated with PQPQLPY (+) (SEQ ID NO: 25), PQPQPQ (⋄) (SEQ ID NO: 23) and QGSFQP (*) (SEQ ID NO: 24) (no activity, baseline).
# (§4) FRET substrate hydrolysis—Three fluorescence resonance energy transfer (FRET) substrates comprising the hexapeptides QPQLPY (SEQ ID NO: 22), PQPQPQ (SEQ ID NO: 23) and QGSFQP (SEQ ID NO: 24) were synthesized with at the N-terminus the HILYTE FLUOR™ 488 label, and at the C-terminus with K(QXL520) (Anaspec, Fremont, Calif.). Rmep (1 μg/ml) and subtilisin A (0.5 μg/ml) were incubated with the substrates (100 μM) in 50 mM TrisHCl pH 8.0. Samples were incubated at 37° C. and fluorescence increase, indicating hydrolysis, was measured every 5 min for 30 min, and every 10 min for the next 30 min, at λex 485 nm and λem 520 nm, using a Genios microtiter plate reader in the kinetic mode.
# gliadins = experiment: Gliadin degradation control of Example 3 (SDS-PAGE); conditions: gliadins 500 μg/ml, enzyme 25 μg/ml, pH 8.0
# Method: as §1, §2
# [2] = test system: gliadin-derived FRET substrate QGSFQP; experiment: FRET substrate hydrolysis, QGSFQP; conditions: substrate 100 μM, Rmep 1 μg/ml, pH 8.0
# Method: as §3, §4
substance,measurement,setting,value
Rmep: DEAE pooled fraction F2 of R. mucilaginosa ATCC 25296 extract with highest gluten-degrading enzyme activity; contains subtilisins C6R5V9_9MICC and C6R5W1_9MICC,degradation of wheat ATI proteins,wheat ATI proteins,resistant to degradation
same,hydrolysis of FRET substrate QPQLPY,[1],rapidly hydrolyzed
same,degradation of gliadins,gliadins,degraded
same,hydrolysis of FRET substrate QGSFQP,[2],not cleaved
